Assay results reported in patent US20110269699A1, “CANCER THERAPY” (priority 2008, published 2011).

How the values were obtained:
[1] = tested on: 226Eμ-myc/Bcl-2 lymphomas; experiment: In vivo apoptosis assay; set-up: species or system C57BL/6 mice; conditions: 5.6 mg/kg i.v.; even at 36 h
Protocol: (§1) For in vivo apoptosis assays, C57BL/6 mice were injected with Eμ-myc lymphomas (5×10^5 cells per animal) and after 10 to 15 days on which lymph nodes became well-palpable romidepsin (5.6 mg/kg) was administered i.v. After the indicated time points, mice were sacrificed and cells were harvested from brachial lymph nodes for fluorescence-activated cell sorting-based assays to measure apoptotic signaling (Lindemann et al., Proc. Nat. Acad. Sci. USA 104:8071-8078, 2007). To assess therapeutic efficacy of romidepsin, C57BL/6 mice were injected with Eμ-myc lymphomas of the indicated genotypes i.v. (5×10^5 cells per animal). Peripheral WBC counts were then monitored until they exceeded 13×10^3/μL (Sysmex Hematology Analyzer K-1000) and romidepsin was administered at 5.6 mg/kg i.v. once every 4 days for a total of four injections. […] Mice in the control cohort received the corresponding amount of vehicle. Cohorts consisted of 8 to 11 mice each, 2 to 3 independently derived lymphomas per genotype. Peripheral WBC counts and body weights were recorded weekly. On signs of major distress or when lymphomas were relapsing as indicated by enlarged brachioaxial lymph nodes, mice were euthanized and a necropsy was done. For analysis of therapeutic efficacy, tumor-induced mortality “events” were recorded. Kaplan-Meier analysis was done and comparisons made using the log-rank (Mantel-Cox) test (MedCalc software version 8.0.2.0).

Eμ-myc/Bcl-2 lymphomas = experiment: In vivo apoptosis assay; set-up: species or system C57BL/6 mice; conditions: all four Eμ-myc/Bcl-2 lymphomas; 5.6 mg/kg i.v.; 24 h after exposure
Protocol: as §1

[2] = tested on: 229Eμ-myc/Bcl-2 lymphomas; experiment: In vivo apoptosis assay; set-up: species or system C57BL/6 mice; conditions: 5.6 mg/kg i.v.; later time points (>24 h)
Protocol: as §1

[3] = tested on: 4242Eμ-myc/Bcl-2 lymphomas; experiment: In vivo apoptosis assay; set-up: species or system C57BL/6 mice; conditions: 5.6 mg/kg i.v.; later time points (>24 h)
Protocol: as §1

[4] = tested on: 102Eμ-myc/Bcl-2 lymphomas; experiment: In vivo apoptosis assay; set-up: species or system C57BL/6 mice; conditions: 5.6 mg/kg i.v.; even at 48 h
Protocol: as §1

Eμ-myc lymphomas [5] = experiment: In vivo apoptosis assay; set-up: species or system C57BL/6 mice; conditions: all four Eμ-myc lymphomas in lymph nodes; 5.6 mg/kg i.v.; 24-h time course
Protocol: as §1

Eμ-myc lymphomas [6] = experiment: In vivo therapy assay (survival); set-up: species or system C57BL/6 mice; conditions: 5.6 mg/kg i.v. every 4 d, four doses
Protocol: (§2) For therapy experiments, Eμ-myc lymphomas were transplanted into C57BL/6 mice and treatment with romidepsin or vehicle commenced when WBC counts in the peripheral blood reached a pathologic threshold (>13×10^3/μL).
For in vivo apoptosis assays, C57BL/6 mice were injected with Eμ-myc lymphomas (5×10^5 cells per animal) and after 10 to 15 days on which lymph nodes became well-palpable romidepsin (5.6 mg/kg) was administered i.v. After the indicated time points, mice were sacrificed and cells were harvested from brachial lymph nodes for fluorescence-activated cell sorting-based assays to measure apoptotic signaling (Lindemann et al., Proc. Nat. Acad. Sci. USA 104:8071-8078, 2007). To assess therapeutic efficacy of romidepsin, C57BL/6 mice were injected with Eμ-myc lymphomas of the indicated genotypes i.v. (5×10^5 cells per animal). Peripheral WBC counts were then monitored until they exceeded 13×10^3/μL (Sysmex Hematology Analyzer K-1000) and romidepsin was administered at 5.6 mg/kg i.v. once every 4 days for a total of four injections. […] Mice in the control cohort received the corresponding amount of vehicle. Cohorts consisted of 8 to 11 mice each, 2 to 3 independently derived lymphomas per genotype. Peripheral WBC counts and body weights were recorded weekly. […] For analysis of therapeutic efficacy, tumor-induced mortality “events” were recorded. […]

[7] = tested on: 226Eμ-myc/Bcl-2 lymphomas; experiment: In vitro cell death analysis, time course; format: cell-based, mouse; conditions: 3.0 nmol/L; up to 72 h
[8] = tested on: 102Eμ-myc/Bcl-2 lymphomas; experiment: In vitro cell death analysis, time course; format: cell-based, mouse; conditions: 3.0 nmol/L; up to 72 h
[9] = tested on: 4242Eμ-myc/Bcl-2 lymphomas; experiment: In vitro cell death analysis, time course; format: cell-based, mouse; conditions: 3.0 nmol/L; up to 72 h
From the text: The primary function of prosurvival Bcl-2 proteins is to inhibit the activity of Bak and Bax proteins and thereby protect the mitochondrial membrane from damage (Cory et al., Nat. Rev. Cancer 2:647-656, 2002). To determine if the induction of apoptosis mediated by romidepsin in 4242Eμ-myc/Bcl-2 and 229Eμ-myc/Bcl-2 lymphomas was via perturbation of the mitochondrial membrane or through some other mechanism, HDACi-induced mitochondrial outer membrane permeabilization (MOMP) was quantitated by staining with tetramethylrhodamine ethyl ester (Molecular Probes).
[…] Viability of cells as measured by trypan blue exclusion assay, propidium iodide uptake, Annexin V staining, cell cycle analysis, or tetramethylrhodamine ethyl ester staining were done as described (Lindemann et al., Proc. Nat. Acad. Sci. USA 104:8071-8078, 2007).

[10] = tested on: 226Eμ-myc/Bcl-2 lymphomas; experiment: In vivo therapy assay (Kaplan-Meier survival); set-up: species or system C57BL/6 mice; conditions: 5.6 mg/kg i.v. every 4 d, four doses
Protocol: (§3) FIG. 4. […] C57BL/6 mice (10 mice per group) bearing (FIG. 4A) 4242Eμ-myc, (FIG. 4B) 229Eμ-myc, (FIG. 4C) 226Eμ-myc, (FIG. 4D) 102Eμ-myc, (FIG. 4E) 4242Eμ-myc/Bcl-2, (FIG. 4F) 229Eμmyc/Bcl-2, (FIG. 4G) 226Eμ-myc/Bcl-2, and (FIG. 4H) 102Eμ-myc/Bcl-2, lymphomas were treated with romidepsin or vehicle. Therapy commenced after WBC counts reached ≧13×10^3/μL. Therapy consisted of either 5.6 mg/kg romidepsin (injected i.v. every 4 d for a total of four doses) or vehicle.
as §2, §1

[11] = tested on: 229Eμ-myc/Bcl-2 lymphomas; experiment: In vivo therapy assay (Kaplan-Meier survival); set-up: species or system C57BL/6 mice; conditions: 5.6 mg/kg i.v. every 4 d, four doses
Protocol: as §3, §2, §1

4242Eμ-myc lymphomas = experiment: In vivo therapy assay (Kaplan-Meier survival); set-up: species or system C57BL/6 mice; conditions: 5.6 mg/kg i.v. every 4 d, four doses; vehicle 19 d; P<0.0003
Protocol: as §3, §2, §1

[12] = tested on: 4242Eμ-myc/Bcl-2 lymphomas; experiment: In vivo therapy assay (Kaplan-Meier survival); set-up: species or system C57BL/6 mice; conditions: 5.6 mg/kg i.v. every 4 d, four doses
Protocol: as §3, §2, §1

[13] = tested on: 102Eμ-myc/Bcl-2 lymphomas; experiment: In vivo therapy assay (Kaplan-Meier survival); set-up: species or system C57BL/6 mice; conditions: 5.6 mg/kg i.v. every 4 d, four doses
Protocol: as §3, §2, §1

102Eμmyc lymphomas = experiment: In vivo therapy assay (Kaplan-Meier survival); set-up: species or system C57BL/6 mice; conditions: 5.6 mg/kg i.v. every 4 d, four doses; vehicle 14 d; P<0.0001
Protocol: as §3, §2, §1

226Eμ-myc lymphomas = experiment: In vivo therapy assay (Kaplan-Meier survival); set-up: species or system C57BL/6 mice; conditions: 5.6 mg/kg i.v. every 4 d, four doses; vehicle 15 d; P<0.0001
Protocol: as §3, §2, §1

229Eμ-myc lymphomas = experiment: In vivo therapy assay (Kaplan-Meier survival); set-up: species or system C57BL/6 mice; conditions: 5.6 mg/kg i.v. every 4 d, four doses; vehicle 20 days; P<0.0001
Protocol: as §3, §2, §1

(1S,4S,10S,16E,21R)-7-[(2Z)-ethylidene]-4,21-diisopropyl-2-oxa-12,13-dithia-5,8,20,23-tetraazabicyclo[8.7.6]tricos-16-ene-3,6,9,19,22-pentanone [Romidepsin]
apoptosis in vivo [1]: remained insensitive
apoptosis in vivo (Eμ-myc/Bcl-2 lymphomas): resistant to romidepsin-induced apoptosis
apoptosis in vivo [2]: did undergo apoptosis at later time points
apoptosis in vivo [3]: did undergo apoptosis at later time points
apoptosis in vivo [4]: remained insensitive
apoptosis in vivo (outer cell membrane damage, DNA fragmentation) (Eμ-myc lymphomas [5]): sensitive to romidepsin
survival of mice compared with vehicle-treated mice (Eμ-myc lymphomas [6]): significantly extended
cell killing in time course [7]: remained relatively insensitive
cell killing in time course [8]: remained relatively insensitive
cell killing in time course [9]: could kill
therapeutic benefit (survival) [10]: little or no therapeutic benefit
median survival ([10]; vehicle 16 d, P=0.86): 16 days
survival of mice compared with vehicle-treated mice [11]: significantly extended the survival
median survival ([11]; vehicle 18 d, P<0.0001): 30 days
median survival (4242Eμ-myc lymphomas): 28 days
survival of mice compared with vehicle-treated mice [12]: significantly extended the survival
median survival ([12]; vehicle 12 d, P<0.0001): 22.5 days
therapeutic benefit (survival) [13]: little or no therapeutic benefit
median survival ([13]; vehicle 11 d, P<0.07): 14.5 days
median survival (102Eμmyc lymphomas): 22 days
median survival (226Eμ-myc lymphomas): 19.5 days
median survival (229Eμ-myc lymphomas): 30 days
